Laboratory results taken from patent US8288334B2, “Peptides for wound healing” (Gene Signal International SA, priority 2010, dated 2012).

How the values were obtained:
trans-dermal wounds = test: wound healing of trans-dermal wounds in mice after topical application; type: in vivo; settings: for wound healing compared with Vehicle treated wounds: 0.5 mg/ml (5 mg/kg), mice; for % healing of wounds, day 1 post treatment: day 1, 0.5 mg/ml (5 mg/kg), vehicle 16.9%; for % healing of wounds, day 1 post treatment / % healing of wounds, day 2 post treatment / % healing of wounds, day 3 post treatment / % healing of wounds, day 4 post treatment: 5 mm punch wounds; for % healing of wounds, day 2 post treatment: day 2, 0.5 mg/ml (5 mg/kg), vehicle 21.2%; for % healing of wounds, day 3 post treatment: day 3, 0.5 mg/ml (5 mg/kg), vehicle 45.9%; for % healing of wounds, day 4 post treatment: day 4, 0.5 mg/ml (5 mg/kg), vehicle 57.5%
Experimental: The vehicle (Batch A) was administered by topical application at a standardized volume of 10 ml/kg for all applications. The peptides of the invention were administered by topical application at the concentration of 0.5 mg/ml in the vehicle. The protocols of treatment were as it follows: • Group 1: (Batch A, Vehicle): 1 topical application 10 minutes after wounding • Group 2: (Peptide 7, 0.5 mg/ml): 1 topical application 10 minutes after wounding • Group 3: (Peptide 10, 0.5 mg/ml): 1 topical application 10 minutes after wounding • Group 4: (Peptide 11, 0.5 mg/ml): 1 topical application 10 minutes after wounding • Group 5: (Peptide 7B, 0.5 mg/ml): 1 topical application 10 minutes after wounding. • Group 6: (Peptide 7A, 0.5 mg/ml): 1 topical application 10 minutes after wounding. • Group 7: (Peptide 7C, 0.5 mg/ml): 1 topical application 10 minutes after wounding. Wounding
Healthy female BALBC Swiss mice were anesthetized by IP injection of Ketamine-Xylazine (80 mg/kg-12 mg/kg; Ref. K-113, Sigma, France). Two trans-dermal wounds, each of 5 mm in width and about 1 to 2 mm in depth were realized in the right and the left flanks of each mouse using 5 mm punch.
At D1, and 10 min post-injury of the animals, the mice were randomized into 7 groups of 3 mice each.
All treatments were realized by topical application at the frequency of 1 topical application/day, for 4 days. Animals of group 1 were treated with the vehicle solution (Batch A). Animals of groups 2 to 7 were treated with the indicated peptide at a dose of 5 mg/kg.

[1] = test system: human microvascular endothelial cells (HMEC); test: in vitro angiogenesis assay (Matrigel, endothelial tube formation); type: cell-based; settings: 400 μg/ml final concentration of each peptide, images at 6 h post incubation
Experimental: Angiogenesis of human microvascular endothelial cells (HMEC) was induced in vitro using a Matrigel assay described by Grant et al (1989, Cell, 1989; 58:933). This method is based on the differentiation of endothelial cells to form capillary structures on a Matrigel Matrix. Matrigel is prepared the Engelbreth-Holm-Swarm (EHS) mouse tumor, which represents a complex mixture of basement membrane proteins including type IV collagen, entactin, proteo-heparan sulfate and other growth factors.
Briefly, 250 μl of Matrigel were transferred to each well of a 24-well culture plate and incubated at 37° C. for 30 min to allow for the matrix solution to solidify. HMEC grown in complete growth medium EGM-2MV were harvested by trypsin, suspended in the same growth medium and 500 μl containing 70 000 cells were added on top of the solidified Matrigel in each well and in the presence or absence of protein. Cells were maintained in a humidified atmosphere air containing 5% CO2 at 37° C. for 18-24 hrs. Endothelial tube formation was observed and photographed under an inverted light microscope.
The results of the in vitro angiogenesis assay were presented in FIG. 1, using HMEC and 400 μg/ml final concentration of each peptide. Images were taken at 6 h post incubation.

VEGFA protein = VEGFA protein by human VEGFA sandwich ELISA in HMEC culture medium; type: cell-based; settings: HMEC incubated with increasing concentrations of peptide
Experimental: Serum-deprived HMEC were incubated with different concentrations of peptide 7 or peptide 10 or vehicle […]. After 3 washes with ice-cold PBS, cells were suspended with the protein extraction buffer (PEB) (20 mM Tris-HCl pH 7.5, 150 mM NaCl, 1 mM EDTA, 1 mM EGTA, 1% Triton, 25 mM sodium pyrophosphate, 1 mM β-glycero-phosphate, 1 mM Na3Vo4, 1 μg/ml leupeptine, 1 μM PMSF). The protein content was measured by Bradford. VEGFA concentration in the culture medium or in the extracts was determined by human VEGFA Sandwich ELISA kit (Cell Signaling technology) according to the manufacturer's instructions.

MAPK (Erk1 and 2) = test: activation status of MAPK (pErk1/2) by western-blot in HMEC; type: cell-based, human; settings: immunoblot anti-activated MAPK (pErk1/2)
Experimental: The activation status of MAPK was determined by western-blot using an anti-activated MAPK (pErk1/2) antibody, and anti-GAPDH mAb as internal standard.
We have also investigated the status of the mitogen activated protein kinase (MAPK), as it is well established that it represents another cascade of intracellular signaling could be implicated in the regulation of VEGF expression.

[2] = test system: Akt (phosphoserine 473 pAkt); test: activation status of protein kinase B (pAkt) by western-blot in HMEC; type: cell-based, human; settings: 400 μg/ml, 10 min and 30 min post incubation, immunoblot
Experimental: The activation status of pAkt was determined by western-blot using an anti-phosphoserine 473 pAkt antibody, and anti-GAPDH mAb as internal standard.
The status of Akt in the HMEC following incubation with either peptide 7 or peptide 10 was investigated.

| Sequence | wound healing compared with Vehicle treated wounds (trans-dermal wounds) | in vitro angiogenesis-inducing activity [1] | VEGF protein within the culture medium, concentration dependence (VEGFA protein) | level of activation of Erk1 and 2 (MAPK) versus Control (MAPK (Erk1 and 2)) | level of activated Akt relative to HMEC incubated without peptide (Control) [2] | % healing of wounds, day 1 post treatment (trans-dermal wounds) [%] | % healing of wounds, day 2 post treatment (trans-dermal wounds) [%] | % healing of wounds, day 3 post treatment (trans-dermal wounds) [%] | % healing of wounds, day 4 post treatment (trans-dermal wounds) [%] |
| --- | --- | --- | --- | --- | --- | --- | --- | --- | --- |
| QSQKVPRQVQS [Peptide 11] | healed faster than the wounds treated with Vehicle | strong in vitro angiogenesis-inducing activity |  |  |  |  |  |  |  |
| TQECPVRTSLDRELDLQASL [Peptide 7] | healed faster than the wounds treated with Vehicle | strong in vitro angiogenesis-inducing activity | dose-dependent increase in VEGF protein | not significant variations in level of activation of Erk1 and 2 | much higher level of activated Akt |  |  |  |  |
| VSKDVCRL [Peptide 10] | healed faster than the wounds treated with Vehicle | strong in vitro angiogenesis-inducing activity |  | not significant variations in level of activation of Erk1 and 2 | much higher level of activated Akt |  |  |  |  |
| ELDLQASL [Peptide 7B] | healed faster than the wounds treated with Vehicle |  |  |  |  |  |  |  |  |
| TQECPVRTSLD [Peptide 7A] | healed faster than the wounds treated with Vehicle |  |  |  |  | 27.4 | 44.7 | 45.1 | 58.8 |
| RRTTQECPVRTSLD [Peptide 7C] | healed faster than the wounds treated with Vehicle |  |  |  |  | 39.4 | 55.3 | 58.8 | 68.2 |
